The values that follow come from patent US10059701B2 (Merck Patent GmbH, priority 2015, dated 2018).

The target in one experiment is T1, IRAK1 (Homo sapiens, UniProt P51617).
T1 construct: His-TEV-IRAK1 (194-712); His (N); TEV cleavage site (N)
Description: IRAK1 enzymatic assay (ADP-Glo luminescence). The experiment is classed as biochemical. As to conditions: purified human recombinant His-TEV-IRAK1 (194-712). An outline of the steps: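 Recombinant human His-TEV-IRAK1 (194-712), 0.3 μg/ml, preincubated 15 min at RT with compounds (10 μM to 0.5 nM) in 50 mM Hepes pH 7.0, 10 mM MgCl2, 2 mM DTT, 0.1% BSA. ATP-started reaction run 2 hours at RT; ADP formed from ATP hydrolysis/autophosphorylation read by ADP-Glo luminescence.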

Another experiment has as its target T2, IRAK4 (Homo sapiens, UniProt Q9NWZ3).
T2 construct: His-TEV-IRAK4 (1-460); His (N); TEV cleavage site (N)
T2 sequence (Q9NWZ3 1-460): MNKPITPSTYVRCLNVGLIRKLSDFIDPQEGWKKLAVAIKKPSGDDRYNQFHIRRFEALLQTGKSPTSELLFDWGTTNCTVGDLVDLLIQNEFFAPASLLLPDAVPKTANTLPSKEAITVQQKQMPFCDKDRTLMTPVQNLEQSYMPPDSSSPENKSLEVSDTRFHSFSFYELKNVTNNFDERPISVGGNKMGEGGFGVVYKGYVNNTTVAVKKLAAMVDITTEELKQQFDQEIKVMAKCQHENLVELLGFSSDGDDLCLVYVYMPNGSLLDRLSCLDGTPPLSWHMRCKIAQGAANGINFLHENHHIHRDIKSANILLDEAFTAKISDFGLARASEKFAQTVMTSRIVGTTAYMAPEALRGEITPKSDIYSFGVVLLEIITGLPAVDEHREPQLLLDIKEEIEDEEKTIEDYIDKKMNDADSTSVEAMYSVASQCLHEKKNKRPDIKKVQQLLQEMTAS
The experiment can be described thus: IRAK4 enzymatic assay (ADP-Glo luminescence). As to conditions: purified human recombinant His-TEV-IRAK4 (1-460), ATP 2 μM. The experiment is classed as biochemical. An outline of the steps: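 Recombinant His-TEV-IRAK4 (1-460) at 0.3 μg/ml preincubated 15 min at RT with compounds (10 μM to 0.5 nM) in Hepes pH 7.0 buffer with MgCl2/MnCl2. Reaction started with 2 μM ATP and 300 nM STK1-biotin peptide, run 2 h at RT. ADP formed read by ADP-Glo luminescence.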

T1 sequence (P51617 194-712): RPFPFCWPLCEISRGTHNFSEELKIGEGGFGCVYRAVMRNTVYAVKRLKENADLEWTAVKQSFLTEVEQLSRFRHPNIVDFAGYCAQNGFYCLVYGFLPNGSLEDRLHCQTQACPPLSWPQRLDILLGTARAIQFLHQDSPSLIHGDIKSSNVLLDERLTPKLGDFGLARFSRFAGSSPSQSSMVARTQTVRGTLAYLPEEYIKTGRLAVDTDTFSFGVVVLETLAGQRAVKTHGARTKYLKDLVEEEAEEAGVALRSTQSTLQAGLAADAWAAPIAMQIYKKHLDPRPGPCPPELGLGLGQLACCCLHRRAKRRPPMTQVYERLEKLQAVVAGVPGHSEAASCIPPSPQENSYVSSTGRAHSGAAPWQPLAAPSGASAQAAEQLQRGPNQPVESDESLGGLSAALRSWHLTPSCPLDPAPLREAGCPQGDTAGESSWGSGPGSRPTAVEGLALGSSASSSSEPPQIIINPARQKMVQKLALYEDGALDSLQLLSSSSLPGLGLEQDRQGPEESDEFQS

`O=C(/N=c1\[nH]c2cc(N3CCCOC3=O)ccc2n1CCCO)c1cccc(C(F)F)c1` [Compound 29, (E)-3-(difluoromethyl)-N-(1-(3-hydroxypropyl)-5-(2-oxo-1,3-oxazinan-3-yl)-1H-benzo[d]imidazol-2(3H)-ylidene)benzamide]: the half-inhibitory concentration (IC50) on IRAK1 and on IRAK4 was at most 100 nM in each case.

Take `CC1(C)CCOC(=O)N1c1ccc2c(c1)[nH]/c(=N\C(=O)c1cccc(C(F)(F)F)c1)n2CCCO` [Example 220, (E)-3-(trifluoromethyl)-N-(5-(4,4-dimethyl-2-oxo-1,3-oxazinan-3-yl)-1-(3-hydroxypropyl)-1H-benzo[d]imidazol-2(3H)-ylidene)benzamide]: the IC50 at IRAK1 and on IRAK4 was at most 100 nM each time.

Take `Cc1ccc(C(=O)/N=c2\[nH]c3cc(N4CCOCC4=O)ccc3n2CCCO)cc1C(F)(F)F` [Compound 78, (E)-N-(1-(3-hydroxypropyl)-5-(3-oxomorpholino)-1H-benzo[d]imidazol-2(3H)-ylidene)-4-methyl-3-(trifluoromethyl)benzamide]: the IC50 is above 1000 nM on IRAK1 and at most 100 nM on IRAK4.

Regarding `O=C(/N=c1\[nH]c2cc(N3CCCOC3=O)ccc2n1CC1CCCCC1)c1cccc(C(F)(F)F)c1` [Compound 181, (E)-N-(1-(cyclohexylmethyl)-5-(2-oxo-1,3-oxazinan-3-yl)-1H-benzo[d]imidazol-2(3H)-ylidene)-3-(trifluoromethyl)benzamide], the results for the 50% inhibitory concentration (IC50) on IRAK1 and at IRAK4 were above 1000 nM and at most 100 nM, respectively.

Turning to `O=C(/N=c1\[nH]c2cc(N3CCOCC3=O)ccc2n1[C@H]1CCCC[C@@H]1CO)c1cccc(C(F)F)c1` (racemic) [Compound 119, rac-(E)-3-(difluoromethyl)-N-(1-((1S,2S)-2-(hydroxymethyl)cyclohexyl)-5-(3-oxomorpholino)-1H-benzo[d]imidazol-2(3H)-ylidene)benzamide], the figures for the IC50 on IRAK1 and at IRAK4 were 100 to 1000 nM and at most 100 nM, respectively.

For `O=C(/N=c1\[nH]c2cc(N3CCCOC3=O)ccc2n1CC1(F)CCOCC1)c1cccc(C(F)F)c1` [Example 228, (E)-3-(difluoromethyl)-N-(1-((4-fluorotetrahydro-2H-pyran-4-yl)methyl)-5-(2-oxo-1,3-oxazinan-3-yl)-1H-benzo[d]imidazol-2(3H)-ylidene)benzamide], the half-maximal inhibitory concentration (IC50) at IRAK1 is 100 to 1000 nM; on IRAK4, at most 100 nM.

In the case of `Cc1cccc(C(=O)/N=c2\[nH]c3cc(N4CCOCC4=O)ccc3n2CCCO)c1` [Compound 105, (E)-N-(1-(3-hydroxypropyl)-5-(3-oxomorpholino)-1H-benzo[d]imidazol-2(3H)-ylidene)-3-methylbenzamide], the IC50 at IRAK1 was 100 to 1000 nM; at IRAK4, at most 100 nM.

Regarding `O=C(/N=c1\[nH]c2cc(N3CCOCC3=O)ccc2n1CCCO)c1cccc(SC(F)(F)F)c1` [Compound 151, (E)-N-(1-(3-hydroxypropyl)-5-(3-oxomorpholino)-1H-benzo[d]imidazol-2(3H)-ylidene)-3-((trifluoromethyl)thio)benzamide], the half-inhibitory concentration (IC50) on IRAK1 and at IRAK4 was at most 100 nM each time.

For `O=C(/N=c1\[nH]c2cc(N3CCOCC3=O)ccc2n1C1CCCC(CO)C1)c1cccc(C(F)(F)F)c1` (centres unmarked) [Compound 120, (E)-N-(1-(3-(hydroxymethyl)cyclohexyl)-5-(3-oxomorpholino)-1H-benzo[d]imidazol-2(3H)-ylidene)-3-(trifluoromethyl)benzamide], the values for the half-inhibitory concentration (IC50) at IRAK1 and on IRAK4 were 100 to 1000 nM and at most 100 nM, respectively.

Consider `O=C(/N=c1\[nH]c2cc(N3CCNCC3=O)ccc2n1CCCO)c1cccc(C(F)(F)F)c1` [Compound 108, (E)-N-(1-(3-hydroxypropyl)-5-(2-oxopiperazin-1-yl)-1H-benzo[d]imidazol-2(3H)-ylidene)-3-(trifluoromethyl)benzamide], for which the IC50 at IRAK1 and at IRAK4 was at most 100 nM throughout.

For `C[S+]([O-])CCCn1/c(=N/C(=O)c2cccc(C(F)F)c2)[nH]c2cc(N3CCOCC3=O)ccc21` (centres unmarked) [Compound 91, (E)-3-(difluoromethyl)-N-(1-(3-(methylsulfinyl)propyl)-5-(3-oxomorpholino)-1H-benzo[d]imidazol-2(3H)-ylidene)benzamide], the concentration for half-maximal inhibition (IC50) on IRAK1 was 100 to 1000 nM; at IRAK4, at most 100 nM.

With `CC1(C)C(=O)N(c2ccc3c(c2)[nH]/c(=N\C(=O)c2cccc(C(F)F)c2)n3CCCO)CCN1C1CC1` [Example 188, (E)-N-(5-(4-cyclopropyl-3,3-dimethyl-2-oxopiperazin-1-yl)-1-(3-hydroxypropyl)-1H-benzo[d]imidazol-2(3H)-ylidene)-3-(difluoromethyl)benzamide], the half-maximal inhibitory concentration (IC50) at IRAK1 and at IRAK4 was at most 100 nM throughout.

With `O=C(O)CCCn1/c(=N/C(=O)c2cccc(C(F)(F)F)c2)[nH]c2cc(N3CCCOC3=O)ccc21` [Compound 168, (E)-4-(5-(2-oxo-1,3-oxazinan-3-yl)-2-((3-(trifluoromethyl)benzoyl)imino)-2,3-dihydro-1H-benzo[d]imidazol-1-yl)butanoic acid], the IC50 at IRAK1 was above 1000 nM; on IRAK4, at most 100 nM.

For `CS(=O)(=O)CCn1/c(=N/C(=O)c2cccc(C(F)F)c2)[nH]c2cc(N3CCOCC3=O)ccc21` [Compound 93, (E)-3-(difluoromethyl)-N-(1-(2-(methylsulfonyl)ethyl)-5-(3-oxomorpholino)-1H-benzo[d]imidazol-2(3H)-ylidene)benzamide], the 50% inhibitory concentration (IC50) at IRAK1 and on IRAK4 was at most 100 nM each time.

As to `O=C(/N=c1\[nH]c2cc(N3CCOCC3=O)ccc2n1CCCO)c1ccccc1` [Compound 30, (E)-N-(1-(3-hydroxypropyl)-5-(3-oxomorpholino)-1H-benzo[d]imidazol-2(3H)-ylidene)benzamide], the IC50 at IRAK1 and on IRAK4 was 100 to 1000 nM throughout.

As for `O=C(/N=c1\[nH]c2cc(N3CCOCC3=O)ccc2n1[C@H]1CCCC[C@H]1CO)c1cccc(C(F)F)c1` (racemic) [Compound 117, rac-(E)-3-(difluoromethyl)-N-(1-((1S,2R)-2-(hydroxymethyl)cyclohexyl)-5-(3-oxomorpholino)-1H-benzo[d]imidazol-2(3H)-ylidene)benzamide], the IC50 at IRAK1 and on IRAK4 was 100 to 1000 nM each time.

As for `O=C1C[C@H](n2/c(=N/C(=O)c3cccc(C(F)(F)F)c3)[nH]c3cc(N4CCCOC4=O)ccc32)CN1` [Compound 154, (S,E)-N-(5-(2-oxo-1,3-oxazinan-3-yl)-1-(5-oxopyrrolidin-3-yl)-1H-benzo[d]imidazol-2(3H)-ylidene)-3-(trifluoromethyl)benzamide], the half-maximal inhibitory concentration (IC50) at IRAK1 is above 1000 nM; at IRAK4, 100 to 1000 nM.

In the case of `COc1cc2c(cc1N1CCCOC1=O)[nH]/c(=N\C(=O)c1cccc(C(F)(F)F)c1)n2CCCO` [Example 206, (E)-N-(1-(3-hydroxypropyl)-6-methoxy-5-(2-oxo-1,3-oxazinan-3-yl)-1H-benzo[d]imidazol-2(3H)-ylidene)-3-(trifluoromethyl)benzamide], the half-maximal inhibitory concentration (IC50) at IRAK1 and on IRAK4 was at most 100 nM throughout.

On to `CSCCCn1/c(=N/C(=O)c2cccc(C(F)F)c2)[nH]c2cc(N3CCOCC3=O)ccc21` [Compound 92, (E)-3-(difluoromethyl)-N-(1-(3-(methylthio)propyl)-5-(3-oxomorpholino)-1H-benzo[d]imidazol-2(3H)-ylidene)benzamide], for which the IC50 at IRAK1 was 100 to 1000 nM; at IRAK4, at most 100 nM.

As for `O=C(/N=c1\[nH]c2cc(N3CCCOC3=O)ccc2n1CC1COC1)c1cccc(C(F)F)c1` [Compound 159, (E)-3-(difluoromethyl)-N-(1-(oxetan-3-ylmethyl)-5-(2-oxo-1,3-oxazinan-3-yl)-1H-benzo[d]imidazol-2(3H)-ylidene)benzamide], the half-maximal inhibitory concentration (IC50) at IRAK1 was 100 to 1000 nM; at IRAK4 it was at most 100 nM.

In the case of `O=C(/N=c1\[nH]c2cc(N3CCOCC3=O)ccc2n1CCCO)c1cccc(-n2cnnc2)c1` [Compound 2, (E)-N-(1-(3-hydroxypropyl)-5-(3-oxomorpholino)-1H-benzo[d]imidazol-2(3H)-ylidene)-3-(4H-1,2,4-triazol-4-yl)benzamide], the IC50 on IRAK1 and at IRAK4 was 100 to 1000 nM in each case.

As to `O=C(/N=c1\[nH]c2cc(N3CCOCC3=O)ccc2n1CCCO)c1cccc(-c2ccn(CC(F)(F)F)c(=O)c2)c1` [Compound 163, (E)-N-(1-(3-hydroxypropyl)-5-(3-oxomorpholino)-1H-benzo[d]imidazol-2(3H)-ylidene)-3-(2-oxo-1-(2,2,2-trifluoroethyl)-1,2-dihydropyridin-4-yl)benzamide], the half-inhibitory concentration (IC50) at IRAK1 is 100 to 1000 nM; on IRAK4 it was at most 100 nM.
